Measured values taken from patent US20250353860A1, “PIPERIDINE CARBOXAMIDE AZAINDANE DERIVATIVE, METHOD FOR PREPARING SAME, AND USE THEREOF” (BRISE PHARMACEUTICALS CO., LTD., priority 2022, published 2025).

What follows are compounds tested against T1, CGRP receptor (Homo sapiens, UniProt O60894+Q16602) (assay: Affinity for human CGRP receptor ([125I]h-CGRPα competition, CHO cell membranes)). Conditions: 0.03 nM [125I]h-CGRPα; Cheng Prusoff; read-out: Ki of the affinity determination to human CGRP receptor.
Type: binding
Set-up: host or cells: CHO-K1
Procedure: The cell membrane homogenate of CHO cells expressing human CGRP receptor (comprising 16 μg of protein) was incubated with 0.03 nM [^125I]h-CGRPα and gradiently diluted test samples in buffer (50 mM Hepes-NaOH (pH 7.4), 10 mM MgCl2, 4 mM KCl, 10 mM […], 1 mM EDTA, 1 μM phosphorylation amide, 0.3% BSA and 0.04% bacitracin) at 22° C. for 90 minutes. A control group without the test sample was set up to obtain the highest binding signal of the experiment, and the non-specific binding of the experiment was determined by adding 1 μM non-isotope-labeled h-CGRPα to the control group. After the incubation, a glass fiber filter (GF/B, Packard) soaked with 0.3% PEI was placed in a 96-well cell collector (Unfilter, Packard), and the sample was quickly filtered under vacuum and rinsed several times with precooled buffer comprising 50 mM Tris-HCl and 150 mM NaCl. After the filter was dried, scintillation fluid (Microscint 0, Packard) was added and the radioactive signal value was measured using a scintillation counter (Topcount, Packard). The results are expressed as the percentage of inhibition of specific binding of the radioligand. Non-isotope labeled h-CGRPα was used as a standard sample as a control. The test samples and standard samples were tested at multiple concentrations to obtain a competition curve with [^125I]h-CGRPα, thereby calculating the IC50) 20 of each sample. The inhibition constant Ki was further calculated using the Cheng Prusoff equation: Ki=IC50/(1+L/KD), wherein L represents the concentration of [^125I]h-CGRPα in the system (0.03 nM), and KD represents the dissociation constant between [^125I]h-CGRPα and the human CORP receptor in the system (0.06 nM).

| Ki [nM] | Structure (SMILES) |
| --- | --- |
| 0.027 | C[C@@H]1[C@H](c2ccccc2)C[C@H](NC(=O)c2cnc3c(c2)C[C@@]2(C3)C(=O)Nc3ncccc32)C(=O)N1CC(F)(F)F [Ubrogepant, reference compound] |

The compounds below were run against T1, CGRP receptor (assay: Inhibition of CGRP signaling pathway (cAMP, HTRF) in CHO-K1 cells expressing human CGRP receptors). Conditions: [α-CGRP]=10 ng/ml; increase in cAMP levels; read-out: IC50 of the inhibitory effect on the CGRP signaling pathway in CHO-K1 cells expressing human CGRP receptors.
Type: cell-based
Set-up: host or cells: CHO-K1
Procedure: (§1) The inhibitory effect of the CGRP signaling pathway in vitro is evaluated by measuring the cAMP level. The principle is that after CGRP binds to the CGRP receptor, the CGRP signaling pathway is activated, inducing an increase in the cAMP level. […] The specific experimental method is as follows:
CHO-K1 cells expressing human CGRP receptor (CGRPR/CHO-K1, PerkinElmer, ES-420-C) were cultured in F12K+10% FBS+400 μg/mL G418+10 μg/mL Blasticidin medium, and the cells were collected in the logarithmic growth phase. According to the instructions of the kit, the cells were resuspended in Stimulation Buffer comprising 0.5 mM IBMX, and 5 μL of the cell suspension was added to each well of a 96-well microplate (Cisbio, 66PL96025) at a cell density of 15,000 cells/well. 2.5 μL of gradient diluted compound solution was added to each well. After incubation at 37° C. for 30 minutes, 2.5 μL of 40 ng/ml human α-CGRP (Bachem, H-1470,0500) diluted in Stimulation Buffer comprising 0.5 mM IBMX was added to each well to a final concentration of 10 ng/ml. After incubation at 37° C. for 30 minutes, 5 μL of Anti-cAMP-Cryptate solution and 5 μL of cAMP-d2 solution were added to each well. After incubation at room temperature for 60 minutes, the HTRF signal was read using a microplate reader (Molecular Devices). Graphpad Prism was used to calculate the IC50 value of the compound's inhibitory effect on the increase in cAMP levels based on the compound concentration and HTRF signal.

| IC50 [nM] | Structure (SMILES) |
| --- | --- |
| 106 | CC1C(c2c(F)ccc(F)c2F)CC(NC(=O)c2cc3c(o2)CCC2(C3)C(=O)Nc3ncccc32)C(=O)N1CC(F)(F)F (stereo not shown) [Example 1, N-(6-methyl-2-oxo-1-(2,2,2-trifluoroethyl)-5-(2,3,6-trifluorophenyl)piperidin-3-yl)-2′-oxo-1′,2′,6,7-tetrahydro-4H-spiro[benzofuran-5,3′-pyrrolo[2,3-b]pyridine]-2-carboxamide] |
| 250 | CC1C(c2c(F)ccc(F)c2F)CC(NC(=O)c2cc3c(s2)CCC2(C3)C(=O)Nc3ncccc32)C(=O)N1CC(F)(F)F (stereo not shown) [Example 2, N-(6-methyl-2-oxo-1-(2,2,2-trifluoroethyl)-5-(2,3,6-trifluorophenyl)piperidin-3-yl)-2′-oxo-1′,2′,6,7-tetrahydro-4H-spiro[benzo[b]thiophene-5,3′-pyrrolo[2,3-b]pyridine]-2-carboxamide] |
| 64.7 | CC1C(c2c(F)ccc(F)c2F)CC(NC(=O)c2cc3c(s2)CC2(C3)C(=O)Nc3ncccc32)C(=O)N1CC(F)(F)F (stereo not shown) [Example 3, N-(6-methyl-2-oxo-1-(2,2,2-trifluoroethyl)-5-(2,3,6-trifluorophenyl)piperidin-3-yl)-2′-oxo-1′,2′,4,6-tetrahydrospiro[cyclopenta[b]thiophene-5,3′-pyrrolo[2,3-b]pyridine]-2-carboxamide] |
| 199 | CC1C(c2c(F)ccc(F)c2F)CC(NC(=O)c2cc3c(o2)CC2(C3)C(=O)Nc3ncccc32)C(=O)N1CC(F)(F)F (stereo not shown) [Example 4, N-(6-methyl-2-oxo-1-(2,2,2-trifluoroethyl)-5-(2,3,6-trifluorophenyl)piperidin-3-yl)-2′-oxo-1′,2′,4,6-tetrahydrospiro[cyclopenta[b]furan-5,3′-pyrrolo[2,3-b]pyridine]-2-carboxamide] |

What follows are compounds tested against T1, CGRP receptor (assay: Inhibition of CGRP signaling pathway (cAMP, HTRF) in SK-N-MC cells). Conditions: [α-CGRP]=10 ng/mL; increase in cAMP levels; read-out: IC50 of the inhibitory effect on the CGRP signaling pathway in SK-N-MC cells.
Type: cell-based
Set-up: SK-N-MC (ATCC, HTB-10) cells endogenously expressing CGRP receptor; host or cells: SK-N-MC
Procedure: as §1
cAMP was determined using the CAMP-GS DYNAMIC KIT detection kit (Cisbio, 62AM4PEB).
SK-N-MC (ATCC, HTB-10) cells endogenously expressing CGRP receptor were cultured in EMEM+10% FBS medium and the cells were collected during the logarithmic growth phase. According to the instructions of the kit, the cells were resuspended in Stimulation Buffer comprising 0.5 mM IBMX, and 5 μL of the cell suspension was added to each well of a 96-well microplate (Cisbio, 66PL96025) at a cell density of 15,000 cells/well, 2.5 μL of gradient diluted compound solution was added to each well. After incubation at 37° C. for 30 minutes, 2.5 μL of 40 ng/ml human α-CGRP (Bachem, H-1470.0500) diluted in Stimulation Buffer comprising 0.5 mM IBMX was added to each well to a final concentration of 10 ng/ml. After incubation at 37° C. for 30 minutes, 5 μL of Anti-cAMP-Cryptate solution and 5 μL of cAMP-d2 solution were added to each well. After incubation at room temperature for 60 minutes, the HTRF signal was read using a microplate reader (Molecular Devices). Graphpad Prism was used to calculate the IC50 value of the compound's inhibitory effect on the increase in cAMP levels based on the compound concentration and HTRF signal.

| IC50 [nM] | Structure (SMILES) |
| --- | --- |
| > 100 | C[C@@H]1[C@H](c2c(F)ccc(F)c2F)C[C@H](NC(=O)c2nc3c(s2)CC2(CC3)C(=O)Nc3ncccc32)C(=O)N1CC(F)(F)F (stereo partly drawn) [Example 9, N-((3S,5S,6R)-6-methyl-2-oxo-1-(2,2,2-trifluoroethyl)-5-(2,3,6-trifluorophenyl)piperidin-3-yl)-2′-oxo-1′,2′,4,7-tetrahydro-5H-spiro[benzo[d]thiazole-6,3′-pyrrolo[2,3-b]pyridine]-2-carboxamide] |
| 6.8 | C[C@@H]1[C@H](c2c(F)ccc(F)c2F)C[C@H](NC(=O)c2cc3c([nH]2)CC2(C3)C(=O)Nc3ncccc32)C(=O)N1CC(F)(F)F (stereo partly drawn) [Example 10, N-((3S,5S,6R)-6-methyl-2-oxo-1-(2,2,2-trifluoroethyl)-5-(2,3,6-trifluorophenyl)piperidin-3-yl)-2′-oxo-1′,2′,4,6-tetrahydro-1H-spiro[cyclopenta[b]pyrrole-5,3′-pyrrolo[2,3-b]pyridine]-2-carboxamide] |
| 11 | C[C@@H]1[C@H](c2c(F)ccc(F)c2F)C[C@H](NC(=O)c2nc3c(s2)CC2(C3)C(=O)Nc3ncccc32)C(=O)N1CC(F)(F)F (stereo partly drawn) [Example 11, N-((3S,5S,6R)-6-methyl-2-oxo-1-(2,2,2-trifluoroethyl)-5-(2,3,6-trifluorophenyl)piperidin-3-yl)-2′-oxo-1′,2′,4,6-tetrahydrospiro[cyclopenta[d]thiazole-5,3′-pyrrolo[2,3-b]pyridine]-2-carboxamide] |
| 53.6 | C[C@@H]1[C@H](c2c(F)ccc(F)c2F)C[C@H](NC(=O)c2nc3c(o2)CCC2(C3)C(=O)Nc3ncccc32)C(=O)N1CC(F)(F)F (stereo partly drawn) [Example 12, N-((3S,5S,6R)-6-methyl-2-oxo-1-(2,2,2-trifluoroethyl)-5-(2,3,6-trifluorophenyl)piperidin-3-yl)-2′-oxo-1′,2′,6,7-tetrahydro-4H-spiro[benzo[d]oxazole-5, 3′-pyrrolo[2,3-b]pyridine]-2-carboxamide] |
| 0.89 | C[C@@H]1[C@H](c2c(F)ccc(F)c2F)C[C@H](NC(=O)c2cc3c([nH]2)CCC2(C3)C(=O)Nc3ncccc32)C(=O)N1CC(F)(F)F (stereo partly drawn) [Example 13, N-((3S,5S,6R)-6-methyl-2-oxo-1-(2,2,2-trifluoroethyl)-5-(2,3,6-trifluorophenyl)piperidin-3-yl)-2′-oxo-1,1′,2′,4,6,7-hexahydrospiro[indole-5,3′-pyrrolo[2,3-b]pyridine]-2-carboxamide] |
